{"source": "patent US20170299609A1", "about": "“TREATMENT OF AMYOTROPHIC LATERAL SCLEROSIS WITH SK CHANNEL ACTIVATORS” (Wright State University, priority 2016, published 2017)", "format_in_all_cases": "in vivo", "key": {"[1]": {"system": "G93A high expressor line of transgenic male ALS mice with a B6SJL background", "assay": "Survival of transgenic ALS mice, CyPPA given P5 to P20 (Example 1)", "settings": "CyPPA 0.014 μg/kg daily IP for 16 days (P5-P20)", "procedure": "(§1) Thus, the effect of SK channel activators on survival and motor function of the G93A high expressor line of transgenic male ALS mice with a B6SJL background (hereinafter, “transgenic ALS mice”) was characterized. The transgenic ALS mice carry a mutation of the superoxide dismutase 1 gene; as a result, the transgenic ALS mice develop a neurodegenerative disease which closely mimics ALS in humans. In this experiment, CyPPA (n=13) or vehicle solution (i.e., saline+11% DMSO, n=12) was administered early to the transgenic ALS mice for sixteen (16) days (between ages P5 and P20) via daily intraperitoneal (i.e., IP) injection. CyPPA was administered at a dose of 0.014 μg/kg in both experiments.\n(§2) In this experiment, the effect of CyPPA on survival of the transgenic ALS mice was assessed by determining when the transgenic ALS mice met end point criteria, i.e., full paralysis of both hind limbs and failing to right themselves 30 seconds after being turned on their backs. Additionally, the effect of CyPPA on motor function of the transgenic ALS mice was assessed by daily measuring from the age of P85 to the end stage using the rotarod machine. More specifically, the transgenic ALS mice were placed on a rotating rod for four minutes at a speed of 5 rotations per minute (i.e., RPM). The speed was increased to 25 RPM and the transgenic ALS mice were deemed unable to complete the task if they could complete only five percent (i.e., 12 seconds) of the task (i.e., the end stage). Rotarod performance was assessed to detect onset of symptoms associated with the neurodegenerative disease mimicking ALS in humans in the transgenic ALS mice and/or to monitor disease progression in the transgenic ALS mice, such as, e.g., via characterizing the rate of loss of motor function."}, "[2]": {"system": "G93A high expressor line of transgenic male ALS mice with a B6SJL background", "assay": "Rotarod motor function of transgenic ALS mice, CyPPA given P5 to P20 (Example 1)", "settings": "CyPPA 0.014 μg/kg daily IP for 16 days (P5-P20)", "procedure": "as §1, §2"}, "[3]": {"system": "G93A high expressor line of transgenic male ALS mice with a B6SJL background", "assay": "Rotarod motor function of transgenic ALS mice, CyPPA given at ALS onset P90 to P96 (Example 2)", "settings": "CyPPA 0.014 μg/kg daily IP for 7 days (P90-P96); 92 to 105 and 112 to 119 days of age; FIG. 4", "procedure": "Because symptoms of ALS in the transgenic ALS mice emerge around P90, the effect of administering CyPPA at P90 was characterized. Without being bound by the theory, it is believed that administration of CyPPA in the transgenic ALS mice at ALS onset would correlate to beginning treatment in humans upon diagnosis of ALS. In this experiment, CyPPA (n=14) or vehicle solution (i.e., saline+11% DMSO; n=14) was administered to the transgenic ALS mice for seven (7) days (between ages P90 and P96) via daily IP injection. CyPPA was administered at a dose of 0.014 μg/kg.\nas §2, with “stage).” for “stage). Rotarod performance was assessed to detect onset of symptoms associated with the neurodegenerative disease mimicking ALS in humans in the transgenic ALS mice and/or to monitor disease progression in the transgenic ALS mice, such as, e.g., via characterizing the rate of loss of motor function.”"}}, "data": [{"smiles": "Cc1cc(NC2CCCCC2)nc(-n2nc(C)cc2C)n1", "note": "[CyPPA]", "values": [{"measurement": "longer survival relative to control injected with vehicle solution", "setting": "[1]", "value": 10, "unit": "days"}, {"measurement": "increase in mean survival over control injected with vehicle solution", "setting": "[1]; p=0.0063", "value": "~8", "unit": "%"}, {"measurement": "mean survival", "setting": "[1]; vehicle 125.76 days, p=0.0063", "value": 135.72, "unit": "days"}, {"measurement": "time able to stay on the rotarod relative to vehicle control", "setting": "[2]; 122 to 126 days of age, FIG. 3", "value": "significantly longer"}, {"measurement": "able to complete the rotarod task longer than vehicle-injected mice", "setting": "[2]; FIG. 2", "value": 5, "unit": "days"}, {"measurement": "reduction of rate of decline in motor function relative to vehicle control", "setting": "[2]; FIG. 3, p=0.0017", "value": "~40", "unit": "%"}, {"measurement": "slope of decline in motor function (rotarod percent complete vs days of age)", "setting": "[2]; FIG. 3 line A, vehicle slope 0.0349", "value": 0.0211}, {"measurement": "average motor function (rotarod completion ratio) versus vehicle control", "setting": "[3]", "value": "significantly better"}]}]}
